# Reference: the kinase profiling compilation of Christmann-Franck et al. (2016)
# Tests used:
# Assay in all cases: KINOMEscan competition binding
# Details in all cases: compound 10.0 µM
# [1] = target: MAP2K6 (human) (UniProt P52564)
# [2] = target: MYO3B (human) (UniProt Q8WXR4)
# [3] = target: ROS1 (human) (UniProt P08922)
# [4] = target: PAK1 (human) (UniProt Q13153)
# [5] = target: SGK3 (human) (UniProt Q96BR1)
# [6] = target: PRKACA (human) (UniProt P17612)
# [7] = target: TNK1 (human) (UniProt Q13470)
# [8] = target: CDK15 (human) (UniProt Q96Q40)
# [9] = target: MINK1 (human) (UniProt Q8N4C8)
# [10] = target: PTK2 (human) (UniProt Q05397)
# [11] = target: ITK (human) (UniProt Q08881)
# [12] = target: MAPK8 (human) (UniProt P45983)
# [13] = target: GRK4 (human) (UniProt P32298)
# [14] = target: BRSK2 (human) (UniProt Q8IWQ3)
# [15] = target: RAF1 (human) (UniProt P04049)
# [16] = target: FGFR4 (human) (UniProt P22455)
# [17] = target: MAP4K4 (human) (UniProt O95819)
# [18] = target: TESK1 (human) (UniProt Q15569)
# [19] = target: CDKL2 (human) (UniProt Q92772)
# [20] = target: RIOK3 (human) (UniProt O14730)
# [21] = target: TXK (human) (UniProt P42681)
# [22] = target: MAP4K3 (human) (UniProt Q8IVH8)
# [23] = target: PLK4 (human) (UniProt O00444)
# [24] = target: CSNK1E (human) (UniProt P49674)
# Chain of CSNK1E (human) (P49674 whole entry, looked up): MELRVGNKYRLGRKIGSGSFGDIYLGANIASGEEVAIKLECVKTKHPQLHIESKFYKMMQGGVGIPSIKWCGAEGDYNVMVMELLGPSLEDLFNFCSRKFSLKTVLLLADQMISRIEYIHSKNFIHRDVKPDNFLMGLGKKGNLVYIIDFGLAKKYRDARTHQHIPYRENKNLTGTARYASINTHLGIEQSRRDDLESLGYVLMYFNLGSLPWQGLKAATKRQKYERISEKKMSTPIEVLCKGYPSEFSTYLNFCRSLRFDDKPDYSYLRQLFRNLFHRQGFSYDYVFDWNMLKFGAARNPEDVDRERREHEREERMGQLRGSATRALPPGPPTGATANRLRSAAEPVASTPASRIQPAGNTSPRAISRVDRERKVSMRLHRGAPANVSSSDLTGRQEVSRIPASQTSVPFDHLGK
# [25] = target: ULK1 (human) (UniProt O75385)
# [26] = target: NEK5 (human) (UniProt Q6P3R8)
# Chain of NEK5 (human) (Q6P3R8 whole entry, looked up): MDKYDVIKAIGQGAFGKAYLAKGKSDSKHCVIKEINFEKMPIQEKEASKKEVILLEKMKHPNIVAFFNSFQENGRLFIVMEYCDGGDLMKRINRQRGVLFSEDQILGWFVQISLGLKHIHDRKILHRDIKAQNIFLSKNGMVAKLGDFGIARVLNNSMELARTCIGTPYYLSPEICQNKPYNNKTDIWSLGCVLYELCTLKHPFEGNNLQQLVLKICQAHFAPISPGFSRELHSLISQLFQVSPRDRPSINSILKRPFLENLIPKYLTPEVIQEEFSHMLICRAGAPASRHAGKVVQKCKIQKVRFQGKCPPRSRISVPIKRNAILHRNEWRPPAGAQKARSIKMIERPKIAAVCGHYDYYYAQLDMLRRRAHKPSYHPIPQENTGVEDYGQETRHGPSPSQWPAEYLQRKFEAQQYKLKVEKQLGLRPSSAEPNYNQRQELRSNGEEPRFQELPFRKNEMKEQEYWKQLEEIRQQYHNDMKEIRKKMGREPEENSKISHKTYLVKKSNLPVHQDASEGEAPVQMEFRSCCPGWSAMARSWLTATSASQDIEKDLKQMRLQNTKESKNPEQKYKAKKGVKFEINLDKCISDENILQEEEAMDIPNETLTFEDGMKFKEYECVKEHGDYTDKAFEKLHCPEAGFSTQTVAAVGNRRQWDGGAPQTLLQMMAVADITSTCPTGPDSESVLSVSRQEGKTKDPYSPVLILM
# [27] = target: EPHA4 (human) (UniProt P54764)
# [28] = target: FGFR1 (human) (UniProt P11362)
# [29] = target: PKN1 (human) (UniProt Q16512)
# [30] = target: FYN (human) (UniProt P06241)
# [31] = target: PRKACB (human) (UniProt P22694)
# [32] = target: LYN (human) (UniProt P07948)
# [33] = target: SLK (human) (UniProt Q9H2G2)
# Chain of SLK (human) (Q9H2G2 whole entry, looked up): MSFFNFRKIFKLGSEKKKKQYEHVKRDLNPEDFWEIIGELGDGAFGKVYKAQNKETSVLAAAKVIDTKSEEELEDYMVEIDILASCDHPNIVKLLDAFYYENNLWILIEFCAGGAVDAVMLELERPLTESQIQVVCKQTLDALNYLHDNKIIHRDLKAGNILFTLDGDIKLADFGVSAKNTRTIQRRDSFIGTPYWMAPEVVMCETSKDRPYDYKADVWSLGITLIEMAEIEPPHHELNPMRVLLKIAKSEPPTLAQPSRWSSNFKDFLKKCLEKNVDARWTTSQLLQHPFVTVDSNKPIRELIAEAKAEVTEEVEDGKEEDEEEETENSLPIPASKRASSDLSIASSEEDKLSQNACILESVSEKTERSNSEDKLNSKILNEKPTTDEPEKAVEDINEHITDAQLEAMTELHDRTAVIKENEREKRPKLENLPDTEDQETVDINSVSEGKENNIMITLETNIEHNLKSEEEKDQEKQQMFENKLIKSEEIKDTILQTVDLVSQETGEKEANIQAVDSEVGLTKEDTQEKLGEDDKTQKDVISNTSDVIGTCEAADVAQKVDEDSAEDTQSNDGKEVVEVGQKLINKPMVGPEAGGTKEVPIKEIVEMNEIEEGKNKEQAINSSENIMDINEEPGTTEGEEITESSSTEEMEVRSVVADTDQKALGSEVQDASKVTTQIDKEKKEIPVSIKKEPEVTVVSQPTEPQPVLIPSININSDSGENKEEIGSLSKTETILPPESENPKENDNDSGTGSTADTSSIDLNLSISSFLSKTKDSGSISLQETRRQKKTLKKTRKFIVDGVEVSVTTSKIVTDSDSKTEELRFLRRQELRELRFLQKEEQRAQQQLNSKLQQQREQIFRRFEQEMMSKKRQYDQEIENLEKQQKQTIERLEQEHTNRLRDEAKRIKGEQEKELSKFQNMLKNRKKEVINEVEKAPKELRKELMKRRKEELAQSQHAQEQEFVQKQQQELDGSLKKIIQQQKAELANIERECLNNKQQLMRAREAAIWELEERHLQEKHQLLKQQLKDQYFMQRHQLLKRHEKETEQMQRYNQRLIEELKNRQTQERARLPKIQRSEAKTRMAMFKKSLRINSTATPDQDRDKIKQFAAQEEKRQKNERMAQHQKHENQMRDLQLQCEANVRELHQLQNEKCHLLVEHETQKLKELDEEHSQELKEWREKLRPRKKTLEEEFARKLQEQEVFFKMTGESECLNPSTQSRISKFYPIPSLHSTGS
# [34] = target: MARK4 (human) (UniProt Q96L34)
# Chain of MARK4 (human) (Q96L34 whole entry, looked up): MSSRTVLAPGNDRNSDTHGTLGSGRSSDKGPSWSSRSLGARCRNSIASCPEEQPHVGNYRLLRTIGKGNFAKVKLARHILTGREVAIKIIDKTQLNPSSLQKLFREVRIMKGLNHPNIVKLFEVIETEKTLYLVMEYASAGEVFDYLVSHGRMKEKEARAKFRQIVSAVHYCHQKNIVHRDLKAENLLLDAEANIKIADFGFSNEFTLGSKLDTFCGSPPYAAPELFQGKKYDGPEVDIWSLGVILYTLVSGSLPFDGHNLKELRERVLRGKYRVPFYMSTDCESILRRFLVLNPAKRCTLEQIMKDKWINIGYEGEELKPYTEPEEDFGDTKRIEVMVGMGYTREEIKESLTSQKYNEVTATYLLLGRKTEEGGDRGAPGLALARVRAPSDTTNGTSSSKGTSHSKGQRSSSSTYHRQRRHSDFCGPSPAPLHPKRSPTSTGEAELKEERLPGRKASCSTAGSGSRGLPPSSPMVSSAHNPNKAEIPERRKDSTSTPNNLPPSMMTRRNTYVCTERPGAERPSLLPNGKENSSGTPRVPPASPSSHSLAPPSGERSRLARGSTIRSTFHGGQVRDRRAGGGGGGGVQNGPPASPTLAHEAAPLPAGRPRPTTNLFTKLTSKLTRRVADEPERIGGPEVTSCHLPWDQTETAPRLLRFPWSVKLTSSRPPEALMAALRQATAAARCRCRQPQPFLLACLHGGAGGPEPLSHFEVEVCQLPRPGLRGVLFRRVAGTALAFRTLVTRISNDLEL
# [35] = target: TNIK (human) (UniProt Q9UKE5)
# [36] = target: SYK (human) (UniProt P43405)
# [37] = target: HIPK3 (human) (UniProt Q9H422)
# [38] = system: RET (human), P07949 [V804M]
# Chain of RET (human), P07949 [V804M] (P07949 whole entry V804M, looked up): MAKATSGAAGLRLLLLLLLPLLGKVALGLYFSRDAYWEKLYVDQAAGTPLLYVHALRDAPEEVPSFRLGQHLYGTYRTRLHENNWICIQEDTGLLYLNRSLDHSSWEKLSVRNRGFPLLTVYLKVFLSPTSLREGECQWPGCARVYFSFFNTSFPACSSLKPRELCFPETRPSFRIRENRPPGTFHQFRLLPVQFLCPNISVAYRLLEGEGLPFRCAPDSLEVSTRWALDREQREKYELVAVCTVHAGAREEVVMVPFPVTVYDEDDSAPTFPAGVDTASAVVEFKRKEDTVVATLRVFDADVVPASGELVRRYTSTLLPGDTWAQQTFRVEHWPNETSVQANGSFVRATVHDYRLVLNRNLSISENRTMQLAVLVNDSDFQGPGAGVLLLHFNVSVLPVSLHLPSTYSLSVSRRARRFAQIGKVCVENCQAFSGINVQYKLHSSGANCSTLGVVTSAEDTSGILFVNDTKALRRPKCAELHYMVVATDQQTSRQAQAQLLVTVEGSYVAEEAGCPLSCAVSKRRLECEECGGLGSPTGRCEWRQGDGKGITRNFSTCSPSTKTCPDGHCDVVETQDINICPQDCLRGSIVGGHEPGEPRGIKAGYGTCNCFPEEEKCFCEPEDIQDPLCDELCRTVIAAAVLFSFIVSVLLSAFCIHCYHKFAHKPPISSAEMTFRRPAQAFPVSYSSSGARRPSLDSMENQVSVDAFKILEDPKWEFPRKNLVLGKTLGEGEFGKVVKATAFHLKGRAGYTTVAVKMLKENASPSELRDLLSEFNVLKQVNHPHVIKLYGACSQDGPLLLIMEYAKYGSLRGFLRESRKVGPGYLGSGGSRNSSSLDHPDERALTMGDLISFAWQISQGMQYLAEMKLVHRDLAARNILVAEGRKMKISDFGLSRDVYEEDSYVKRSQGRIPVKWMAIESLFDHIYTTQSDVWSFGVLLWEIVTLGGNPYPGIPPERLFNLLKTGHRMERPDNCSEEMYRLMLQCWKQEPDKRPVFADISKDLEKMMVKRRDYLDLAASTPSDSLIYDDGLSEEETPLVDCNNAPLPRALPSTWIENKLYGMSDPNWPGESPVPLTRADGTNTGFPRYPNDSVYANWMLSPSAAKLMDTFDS
# [39] = target: ACVR2A (human) (UniProt P27037)
# Chain of ACVR2A (human) (P27037 whole entry, looked up): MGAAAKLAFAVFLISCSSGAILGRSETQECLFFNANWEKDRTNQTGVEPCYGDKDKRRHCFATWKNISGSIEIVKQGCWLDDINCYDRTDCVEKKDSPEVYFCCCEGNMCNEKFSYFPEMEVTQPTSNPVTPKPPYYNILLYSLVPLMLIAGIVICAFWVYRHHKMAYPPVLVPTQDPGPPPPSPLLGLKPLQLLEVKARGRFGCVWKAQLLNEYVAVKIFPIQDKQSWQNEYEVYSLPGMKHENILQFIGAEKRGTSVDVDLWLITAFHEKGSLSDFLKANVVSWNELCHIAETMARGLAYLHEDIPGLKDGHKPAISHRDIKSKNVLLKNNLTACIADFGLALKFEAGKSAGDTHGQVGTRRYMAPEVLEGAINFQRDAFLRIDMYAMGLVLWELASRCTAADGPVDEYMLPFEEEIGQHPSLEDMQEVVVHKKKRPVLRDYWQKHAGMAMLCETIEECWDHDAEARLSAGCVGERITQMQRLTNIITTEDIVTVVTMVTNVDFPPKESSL
# [40] = target: CDC42BPA (human) (UniProt Q5VT25)
# [41] = system: FLT3 (human), P36888 [D835H]
# Chain of MAP2K6 (human) (P52564 whole entry, looked up): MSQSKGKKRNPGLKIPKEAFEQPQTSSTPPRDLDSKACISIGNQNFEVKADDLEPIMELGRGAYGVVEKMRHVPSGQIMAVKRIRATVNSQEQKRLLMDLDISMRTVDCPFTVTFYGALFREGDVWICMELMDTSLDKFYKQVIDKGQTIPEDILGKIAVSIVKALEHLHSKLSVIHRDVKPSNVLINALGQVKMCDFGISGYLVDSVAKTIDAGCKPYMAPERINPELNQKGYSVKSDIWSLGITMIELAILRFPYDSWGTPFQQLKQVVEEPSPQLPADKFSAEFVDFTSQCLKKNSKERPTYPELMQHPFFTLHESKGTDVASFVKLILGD
smiles,measurement,setting,value
CN(C)C/C=C/C(=O)Nc1ccc(C(=O)Nc2cccc(Nc3nccc(-c4cccnc4)n3)c2)cc1,"kinase still bound, per cent of control",[1],47%
same,"kinase still bound, per cent of control",[2],100%
same,"kinase still bound, per cent of control",[3],76%
same,"kinase still bound, per cent of control",[4],90%
same,"kinase still bound, per cent of control",[5],65%
same,"kinase still bound, per cent of control",[6],100%
same,"kinase still bound, per cent of control",[7],20%
same,"kinase still bound, per cent of control",[8],100%
same,"kinase still bound, per cent of control",[9],50%
same,"kinase still bound, per cent of control",[10],100%
same,"kinase still bound, per cent of control",[11],100%
same,"kinase still bound, per cent of control",[12],1.2%
same,"kinase still bound, per cent of control",[13],29%
same,"kinase still bound, per cent of control",[14],88%
same,"kinase still bound, per cent of control",[15],100%
same,"kinase still bound, per cent of control",[16],100%
same,"kinase still bound, per cent of control",[17],18%
same,"kinase still bound, per cent of control",[18],74%
same,"kinase still bound, per cent of control",[19],33%
same,"kinase still bound, per cent of control",[20],13%
same,"kinase still bound, per cent of control",[21],67%
same,"kinase still bound, per cent of control",[22],57%
same,"kinase still bound, per cent of control",[23],29%
same,"kinase still bound, per cent of control",[24],56%
same,"kinase still bound, per cent of control",[25],97%
same,"kinase still bound, per cent of control",[26],2.2%
same,"kinase still bound, per cent of control",[27],100%
same,"kinase still bound, per cent of control",[28],89%
same,"kinase still bound, per cent of control",[29],95%
same,"kinase still bound, per cent of control",[30],100%
same,"kinase still bound, per cent of control",[31],100%
same,"kinase still bound, per cent of control",[32],100%
same,"kinase still bound, per cent of control",[33],98%
same,"kinase still bound, per cent of control",[34],26%
same,"kinase still bound, per cent of control",[35],36%
same,"kinase still bound, per cent of control",[36],23%
same,"kinase still bound, per cent of control",[37],4.2%
same,"kinase still bound, per cent of control",[38],74%
same,"kinase still bound, per cent of control",[39],53%
same,"kinase still bound, per cent of control",[40],100%
same,"kinase still bound, per cent of control",[41],28%
C=CC(=O)Nc1cc(-n2c(=O)ccc3cnc4ccc(-c5cn[nH]c5)cc4c32)ccc1C,"kinase still bound, per cent of control",[1],53%
same,"kinase still bound, per cent of control",[2],100%
same,"kinase still bound, per cent of control",[3],100%
same,"kinase still bound, per cent of control",[4],100%
same,"kinase still bound, per cent of control",[5],96%
same,"kinase still bound, per cent of control",[6],100%
same,"kinase still bound, per cent of control",[7],73%
same,"kinase still bound, per cent of control",[8],49%
same,"kinase still bound, per cent of control",[9],31%
same,"kinase still bound, per cent of control",[10],96%
same,"kinase still bound, per cent of control",[11],29%
same,"kinase still bound, per cent of control",[12],1.9%
same,"kinase still bound, per cent of control",[13],84%
same,"kinase still bound, per cent of control",[14],67%
same,"kinase still bound, per cent of control",[15],100%
same,"kinase still bound, per cent of control",[16],100%
same,"kinase still bound, per cent of control",[17],60%
same,"kinase still bound, per cent of control",[18],54%
same,"kinase still bound, per cent of control",[19],17%
same,"kinase still bound, per cent of control",[20],31%
same,"kinase still bound, per cent of control",[21],7%
same,"kinase still bound, per cent of control",[22],73%
same,"kinase still bound, per cent of control",[23],66%
same,"kinase still bound, per cent of control",[24],88%
same,"kinase still bound, per cent of control",[25],87%
same,"kinase still bound, per cent of control",[26],100%
same,"kinase still bound, per cent of control",[27],97%
same,"kinase still bound, per cent of control",[28],80%
same,"kinase still bound, per cent of control",[29],100%
same,"kinase still bound, per cent of control",[30],90%
same,"kinase still bound, per cent of control",[31],100%
same,"kinase still bound, per cent of control",[32],100%
same,"kinase still bound, per cent of control",[33],100%
same,"kinase still bound, per cent of control",[34],64%
same,"kinase still bound, per cent of control",[35],47%
same,"kinase still bound, per cent of control",[36],100%
same,"kinase still bound, per cent of control",[37],48%
same,"kinase still bound, per cent of control",[38],68%
same,"kinase still bound, per cent of control",[39],76%
same,"kinase still bound, per cent of control",[40],97%
same,"kinase still bound, per cent of control",[41],14%
COc1cc(C(=O)N2CCC(N3CCN(C)CC3)CC2)ccc1Nc1ncc2c(n1)N(C)c1ccccc1C(=O)N2C,"kinase still bound, per cent of control",[1],83%
same,"kinase still bound, per cent of control",[2],83%
same,"kinase still bound, per cent of control",[3],12%
same,"kinase still bound, per cent of control",[4],95%
same,"kinase still bound, per cent of control",[5],95%
same,"kinase still bound, per cent of control",[6],100%
same,"kinase still bound, per cent of control",[7],2.8%
same,"kinase still bound, per cent of control",[8],100%
same,"kinase still bound, per cent of control",[9],77%
same,"kinase still bound, per cent of control",[10],34%
same,"kinase still bound, per cent of control",[11],82%
same,"kinase still bound, per cent of control",[12],95%
same,"kinase still bound, per cent of control",[13],86%
same,"kinase still bound, per cent of control",[14],64%
same,"kinase still bound, per cent of control",[15],100%
same,"kinase still bound, per cent of control",[16],28%
same,"kinase still bound, per cent of control",[17],85%
same,"kinase still bound, per cent of control",[18],82%
same,"kinase still bound, per cent of control",[19],100%
same,"kinase still bound, per cent of control",[20],85%
same,"kinase still bound, per cent of control",[21],91%
same,"kinase still bound, per cent of control",[22],71%
same,"kinase still bound, per cent of control",[23],0%
same,"kinase still bound, per cent of control",[24],95%
same,"kinase still bound, per cent of control",[25],80%
same,"kinase still bound, per cent of control",[26],100%
same,"kinase still bound, per cent of control",[27],89%
same,"kinase still bound, per cent of control",[28],86%
same,"kinase still bound, per cent of control",[29],100%
same,"kinase still bound, per cent of control",[30],100%
same,"kinase still bound, per cent of control",[31],100%
same,"kinase still bound, per cent of control",[32],100%
same,"kinase still bound, per cent of control",[33],100%
same,"kinase still bound, per cent of control",[34],78%
same,"kinase still bound, per cent of control",[35],100%
same,"kinase still bound, per cent of control",[36],100%
same,"kinase still bound, per cent of control",[37],89%
same,"kinase still bound, per cent of control",[38],80%
same,"kinase still bound, per cent of control",[39],100%
same,"kinase still bound, per cent of control",[40],100%
same,"kinase still bound, per cent of control",[41],100%
